Source: ChEMBL document CHEMBL5120898, “Bathiapeptides: Polythiazole-Containing Peptides from a Marine Biofilm-Derived Bacillus sp” (J Nat Prod, 2022)

What was measured:
Assay type in all cases: functional, cell-based
HepG2 = assay: Cytotoxicity against human HepG2 cells assessed as inhibition of cell growth incubated for 24 hrs by MTT assay; settings: HepG2, 24 h
HeLa = assay: Cytotoxicity against human HeLa cells assessed as inhibition of cell growth incubated for 24 hrs by MTT assay
MCF7 = assay: Cytotoxicity against human MCF7 cells assessed as inhibition of cell growth incubated for 24 hrs by MTT assay; settings: MCF7, 24 h
MGC-803 = assay: Cytotoxicity against human MGC-803 cells assessed as inhibition of cell growth incubated for 24 hrs by MTT assay; settings: MGC-803, 24 h

Compound	IC50 (HepG2) [µM]	IC50 (HeLa) [µM]	IC50 (MCF7) [µM]	IC50 (MGC-803) [µM]
CC[C@H](C)[C@H](NC(=O)[C@H](N)Cc1ccccc1)C(=O)N[C@H](C)c1nc(-c2nc(-c3nc(C(=O)O)cs3)cs2)cs1	> 50	> 50	> 50	> 50
CC[C@H](C)[C@@H]1NC(=O)[C@@H](Cc2ccccc2)NC(=O)c2csc(n2)-c2csc(n2)-c2csc(n2)[C@@H](CO)NC1=O	> 50	16.3	12.4	15.7
CC[C@H](C)[C@@H]1NC(=O)[C@@H](Cc2ccccc2)NC(=O)c2csc(n2)-c2csc(n2)-c2csc(n2)[C@@H](C)NC1=O	4.1	1.5	0.5	0.8
CC(C)[C@@H]1NC(=O)[C@@H](Cc2ccccc2)NC(=O)c2csc(n2)-c2csc(n2)-c2csc(n2)[C@@H](C)NC1=O	5	8	3	2.9
CC[C@H](C)[C@H](NC(=O)[C@@H](Cc1ccccc1)NC(C)=O)C(=O)N[C@H](C)c1nc(-c2nc(-c3nc(C(=O)O)cs3)cs2)cs1	> 50	> 50	> 50	> 50
CC[C@H](C)[C@@H]1NC(=O)[C@@H](Cc2ccccc2)NC(=O)c2csc(n2)-c2csc(n2)[C@@H](C)NC1=O	> 50	> 50	> 50	> 50
CC[C@H](C)[C@@H]1NC(=O)[C@@H](Cc2ccccc2)NC(=O)c2csc(n2)-c2csc(n2)-c2csc(n2)[C@H](C)NC1=O	13.1	29.6	10	16.4
CC[C@H](C)[C@@H]1NC(=O)[C@@H](Cc2ccccc2)NC(=O)c2csc(n2)-c2csc(n2)-c2csc(n2)CNC1=O	4.5	4.6	2.4	5.8
